Assay results: publication PMC11647725, “Discovery of 4-(5-Membered)Heteroarylether-6-methylpicolinamide Negative Allosteric Modulators of Metabotropic Glutamate Receptor Subtype 5” (ACS Medicinal Chemistry Letters, 2024)
Like-named read-outs stand apart in the source and are kept apart here.

Columns and labels:
human mGlu5 = target: T1, human mGlu5 (Homo sapiens, UniProt P41594); assay: Calcium mobilization assay in human mGlu5-HEK293A cells (NAM, EC80 glutamate); assay type: cell-based; conditions: for % GluMin: efficacy of the NAM to reduce an EC80 response of glutamate; for pIC50: n = 2 in triplicate; for IC50: read-out: hmGlu5 IC50; for fold increase in hmGlu5 potency: 22fC vs 22bC, 22gA vs 22iA, 22iA vs 22hA, 22iB vs 22hB
T1 construct: expressed in transfected cells

[1] = Intrinsic clearance in rat liver microsomes; assay type: in vitro ADME; conditions: for CLint scaled at 40 min, 1 µM: pH 7.4, rat liver microsomes; for CLhep, rat: predicted hepatic clearance based on microsomal CLint
Method: (§1) Mean values for each species were calculated from 3 replicates.
(§2) Intrinsic Clearance in Rat and Human Liver Microsomes
(§3) The in vitro intrinsic clearance (CL int) was investigated in commercially obtained hepatic microsomes from rat and human donors using the substrate depletion (i.e., loss-of-parent vs. time, or t 1/2 method) approach with analyte detection via liquid chromatography-tandem mass spectrometry (LC-MS/MS). For each species, mean %parent remaining values at each time point were calculated from replicates raw data (analyte:IS peak area ratios) and used to determine in vitro t 1/2 and CLint.
(§4) Experiments were carried out using a robot-assisted (TECAN model Evo 200). Compound was incubated (1 µM final concentration) in buffer (100 mM potassium phosphate pH 7.4 with 3 mM MgCl2) containing hepatic microsomes (0.5 mg/mL final concentration) from multiple species, discretely, at 37 °C under constant orbital shaking. After 5 minutes (pre-incubation), reactions were initiated by addition of nicotinamide adenine dinucleotide phosphate (NADPH, 1 mM final concentration). At selected time intervals (0, 3, 7, 15, 25, and 45 minutes) post-addition of NADPH, aliquots (50 µL) were taken and placed into a 96-shallow-well plate containing ice cold acetonitrile (150 µL) with carbamazepine (IS, 50 nM). The plates were then centrifuged (3000 rcf at 4 °C) for 10 minutes. The supernatants were transferred to a new 96-shallow-well daughter plate and diluted (1:1 v/v) with water (Milli-Q filtered). The plates were then sealed in preparation for LC-MS/MS analysis (see below).
(§5) Raw LC-MS/MS peak area data generated from the assay samples were used to construct natural log-transformed %parent remaining vs. time plots (using t = 0 minute post-NADPH addition sample data as starting point set to 100%). In vitro compound half-life (t 1/2) values were obtained using the following […]
(§6) k is the slope from linear regression analysis of the natural log-transformed data (using means from Where all replicates at each time point). Resulting t 1/2 values were then used to calculate hepatic CLint values according to the following equation and with the use of species-specific scale-up factors for liver weight (grams) per total body weight (kg): […]
(§7) CLint = in vitro t1/2 x 0.5 mg microsomes x 1 gram liver x kg body wt aScale-up factors used are 45 (rat) and 20 (human).4
(§8) Predicted hepatic clearance (CLhep) was calculated using the following equation: […]
(§9) Qh represents hepatic blood flow (mL/min/kg): 21 for human, 70 for rat, and 90 for mouse.
(§10) Prepared samples were injected (10 µL each) onto an AB Sciex Triple Quad 4500 mass spectrometer system with an Agilent 1260 Infinity II pump and autosampler. Mass spectrometer conditions are described in Table S1. Quantitation of compounds was performed via AB Sciex Multiquant software using the raw analyte:IS peak area ratios. The typical detection range was 0.5 ng/mL to ≥ 5,000 ng/mL utilizing a quadratic equation regression with 1/x2 weighting.
(§11) Correction for dilution of all brain samples (in extraction buffer and subsequently in blank plasma, as previously described) was performed post-quantitation. The corrections for dilution in extraction buffer employed correction factors specific to each brain weight (not shown).

[2] = Binding in plasma from rat (equilibrium dialysis); assay type: in vitro ADME; conditions: samples had low analyte peaks
Method: (§12) Binding in plasma from rat and human.
(§13) Determination of compounds’ fraction unbound (f u) in plasma from rat and human was conducted in vitro via equilibrium dialysis using HTDialysis membrane plates. Dialysis membranes (four paired strips per HTD assay) were hydrated as described by the manufacturer and inserted into the HTD plate, which was assembled and prepared for sample addition by the dispensing of blank buffer (DPBS, 100 µL/well) into the ‘top half’ of each membrane-split well. Each compound was diluted into plasma from each species (5 µM final concentration), which was aliquoted in triplicate to the ‘bottom half’ of the prepared HTD plate wells. The HTD plate was sealed and incubated for 6 hours at 37 °C. Following incubation, each well (both top and bottom halves) were transferred (20 µL) to the corresponding wells of a 96-shallow-well (V-bottom) plate. The daughter plates were then matrix-matched (buffer side wells received equal volume of plasma, and plasma side wells received equal volume of buffer), and extraction solution (120 µL; acetonitrile containing 50 nM carbamazepine as IS) was added to all wells of both daughter plates to precipitate protein and extract test article. The plates were then sealed and centrifuged (3500 rcf) for 10 minutes at ambient temperature. Supernatant (60 µL) from each well of the daughter plates was then transferred to the corresponding wells of new daughter plates (96-shallow-well, V bottom) containing water (Milli-Q, 60 µL/well), and the plates were sealed in preparation for LC-MS/MS analysis (see below). fu was calculated as (analyte to IS MS peak area ratio from Trans-buffer side) / (analyte to IS MS peak area ratio from Cis-plasma side). Mean values for each species were calculated from 3 replicates. […]
(§14) Mean values for each species were calculated from 3 replicates. […]
as §4, with “After” for “Experiments were carried out using a robot-assisted (TECAN model Evo 200). Compound was incubated (1 µM final concentration) in buffer (100 mM potassium phosphate pH 7.4 with 3 mM MgCl2) containing hepatic microsomes (0.5 mg/mL final concentration) from multiple species, discretely, at 37 °C under constant orbital shaking. After”

[3] = Binding in plasma from human (equilibrium dialysis); assay type: in vitro ADME; conditions: for fraction unbound at 6 h, 5 µM: human, plasma, read-out: Human fu,plasma
Method: as §12, §13, §14
as §4, with “After” for “Experiments were carried out using a robot-assisted (TECAN model Evo 200). Compound was incubated (1 µM final concentration) in buffer (100 mM potassium phosphate pH 7.4 with 3 mM MgCl2) containing hepatic microsomes (0.5 mg/mL final concentration) from multiple species, discretely, at 37 °C under constant orbital shaking. After”

[4] = IV plasma-brain level determination (PBL) in rat; assay type: in vivo; conditions: male, Sprague-Dawley, brain and plasma, SD rat, 0.2 mg/kg IV; for Kp at 0.25 h: total brain-to-plasma partition ratio
[5] = Binding in brain homogenate from rat (equilibrium dialysis); assay type: in vitro ADME; conditions: rat brain homogenates; for fraction unbound at 6 h, 1 µM: rat, brain homogenate, read-out: Rat fu,brain
Method: transferred to the corresponding wells of new daughter plates (96-shallow-well, V bottom) containing water (Milli-Q, 60 µL/well), and the plates were sealed in preparation for LC-MS/MS analysis (see below). fu was calculated as (analyte to IS MS peak area ratio from Trans-buffer side) / (analyte to IS MS peak area ratio from Cis-plasma side). Mean values for each species were calculated from 3 replicates.
Binding in brain homogenate from rat.
Determination of fraction unbound (f u) in brain homogenate from rat was conducted using the same methodology and procedure than described for plasma protein binding assay with the following modifications: 1) a final compound concentration of 1 μM was used, 2) naïve rat brains were homogenized in DPBS (1:3 composition of brain: DPBS, w/w) using a Mini-Bead Beater™ machine in order to obtain […]
The diluted fraction unbound (f u2) in brain was calculated as (analyte to IS MS peak area ratio from Trans-buffer side) / (analyte to IS MS peak area ratio from Cis-brain homogenate side). Undiluted fraction unbound for the brain was calculated using the following equation: […]
as §14

[6] = Intrinsic clearance in human liver microsomes; assay type: in vitro ADME; conditions: for CLint scaled at 40 min, 1 µM: pH 7.4, human liver microsomes; for CLhep, human: predicted hepatic clearance based on microsomal CLint
Method: as §1, §2, §3, §4, §5, §6, §7, §8, §9, §10, §11

[7] = human mGlu5-HEK293A cells, EC80 fixed concentration of glutamate

T1 sequence (P41594 21-1212): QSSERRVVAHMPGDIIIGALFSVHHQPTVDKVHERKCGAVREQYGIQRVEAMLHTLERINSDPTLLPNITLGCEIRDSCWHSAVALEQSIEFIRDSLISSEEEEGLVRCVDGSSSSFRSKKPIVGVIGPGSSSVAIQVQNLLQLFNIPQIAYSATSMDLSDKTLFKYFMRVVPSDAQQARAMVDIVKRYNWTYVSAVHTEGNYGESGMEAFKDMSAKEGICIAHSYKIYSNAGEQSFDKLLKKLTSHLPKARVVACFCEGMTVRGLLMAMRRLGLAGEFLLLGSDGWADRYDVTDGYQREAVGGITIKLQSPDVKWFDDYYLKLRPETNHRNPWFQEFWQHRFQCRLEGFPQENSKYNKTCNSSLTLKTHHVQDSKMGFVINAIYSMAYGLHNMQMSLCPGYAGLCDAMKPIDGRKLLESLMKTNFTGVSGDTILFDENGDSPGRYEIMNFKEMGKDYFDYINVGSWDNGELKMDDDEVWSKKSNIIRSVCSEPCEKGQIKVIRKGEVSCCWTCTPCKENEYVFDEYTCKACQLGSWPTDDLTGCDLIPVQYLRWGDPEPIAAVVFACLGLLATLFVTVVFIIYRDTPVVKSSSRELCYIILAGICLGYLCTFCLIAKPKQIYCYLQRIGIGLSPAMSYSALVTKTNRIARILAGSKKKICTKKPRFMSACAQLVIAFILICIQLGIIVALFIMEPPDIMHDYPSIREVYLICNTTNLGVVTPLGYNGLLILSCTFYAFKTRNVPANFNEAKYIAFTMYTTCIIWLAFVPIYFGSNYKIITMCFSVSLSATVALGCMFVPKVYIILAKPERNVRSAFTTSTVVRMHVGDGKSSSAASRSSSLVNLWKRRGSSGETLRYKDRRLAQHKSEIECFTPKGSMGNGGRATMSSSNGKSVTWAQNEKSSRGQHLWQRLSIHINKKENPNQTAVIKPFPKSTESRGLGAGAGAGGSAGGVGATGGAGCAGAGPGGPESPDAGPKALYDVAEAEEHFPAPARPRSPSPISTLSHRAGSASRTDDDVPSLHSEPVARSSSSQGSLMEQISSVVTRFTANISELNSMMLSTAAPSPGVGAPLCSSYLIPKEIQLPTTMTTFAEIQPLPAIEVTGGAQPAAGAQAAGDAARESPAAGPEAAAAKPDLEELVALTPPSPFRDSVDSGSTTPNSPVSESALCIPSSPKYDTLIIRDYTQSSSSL

SMILES | % GluMin (human mGlu5; human mGlu5-HEK293A cells) [%] | pIC50 (human mGlu5; [7]) | IC50 (human mGlu5; [7]) [nM] | IC50 (human mGlu5) [nM] | CLint scaled at 40 min, 1 µM [1] [mL/min/kg] | CLhep, rat [1] [mL/min/kg] | fold increase in hmGlu5 potency (human mGlu5) [fold] | stability in rat plasma [2] | fraction unbound at 6 h, 5 µM [3] | Kp at 0.25 h [4] | Rat fu,brain ([5]; fraction unbound) | fraction unbound at 6 h, 1 µM [5] | CLint scaled at 40 min, 1 µM [6] [mL/min/kg] | CLhep, human [6] [mL/min/kg] | Human fu,plasma ([3]; fraction unbound) | Kp uu at 0.25 h ([4]; unbound brain-to-plasma partition ratio)
Cc1cccc(NC(=O)c2cc(Oc3c(C)nn(C)c3C)cc(C)n2)n1 [22aC] | 2 | 5.55 | 2840 | 2800 | – | – | – | – | – | – | – | – | – | – | – | –
Cc1cc(Oc2cn(C)nc2C)cc(C(=O)Nc2nc(C)cs2)n1 [22bB] | 2 | 5.91 | 1250 | – | – | – | – | – | – | – | – | – | – | – | – | –
Cc1cc(Oc2cc(C(F)F)n(C)n2)cc(C(=O)Nc2nc(C)cs2)n1 [22cB] | 2 | 5.74 | 1850 | – | – | – | – | – | – | – | – | – | – | – | – | –
Cc1cc(Oc2ncn(C)n2)cc(C(=O)Nc2nc(C)cs2)n1 [22dB] | 2 | 5.73 | 1890 | – | – | – | – | – | – | – | – | – | – | – | – | –
Cc1cccc(NC(=O)c2cc(Oc3ncn(C)n3)cc(C)n2)n1 [22dC] | 2 | 6.00 | 1010 | – | – | – | – | – | – | – | – | – | – | – | – | –
Cc1cc(Oc2cc(C)n(C)n2)cc(C(=O)Nc2nc(C)cs2)n1 [22eB] | 2 | 5.77 | 1720 | – | – | – | – | – | – | – | – | – | – | – | – | –
Cc1cccc(NC(=O)c2cc(Oc3cc(C)nn3C)cc(C)n2)n1 [22fC] | 2 | 6.69 | 207 | – | 436 | 60 | 7.8 | possibly be unstable in rat plasma | 0.037 | 1.02 | 0.008 | < 0.01 | 71 | 16 | – | –
Cc1cc(Oc2cnn(C)c2C(F)(F)F)cc(C(=O)Nc2ccc(F)cn2)n1 [22gA] | 2 | 6.93 | 120 | – | 82 | 38 | ~3 | possibly be unstable in rat plasma | 0.012 | 3.08 | – | – | 11 | 7 | – | –
Cc1cc(Oc2cnn(C)c2C(F)(F)F)cc(C(=O)Nc2nc(C)cs2)n1 [22gB] | 2 | 7.58 | 26 | – | 817 | 65 | – | possibly be unstable in rat plasma | – | 5.57 | – | – | 70 | 16 | – | –
Cc1cccc(NC(=O)c2cc(Oc3cnn(C)c3C(F)(F)F)cc(C)n2)n1 [22gC] | – | – | – | – | 600 | 63 | – | – | 0.011 | – | – | 0.005 | 68 | 16 | – | –
Cc1cc(Oc2ccnn2C)cc(C(=O)Nc2ccc(F)cn2)n1 [22hA] | 2 | 6.30 | 506 | – | – | – | – | – | – | – | – | – | – | – | – | –
Cc1cc(Oc2ccnn2C)cc(C(=O)Nc2nc(C)cs2)n1 [22hB] | 2 | 7.02 | 96 | – | 45 | 27 | – | – | > 0.04 | 1.13 | – | 0.029 | 216 | 19 | 0.062 | 0.15
Cc1csc(NC(=O)c2cc(Oc3cnn(C)c3)c(C(F)(F)F)cn2)n1 [24B] | 2 | 5.55 | 2820 | 2800 | – | – | – | – | – | – | – | – | – | – | – | –
Cc1cccc(NC(=O)c2cc(Oc3cnn(C)c3)c(C(F)(F)F)cn2)n1 [24C] | 2 | 5.89 | 1330 | 1300 | – | – | – | – | – | – | – | – | – | – | – | –
